Like-named read-outs stand apart in the source and are kept apart here.

In series [1] the test system is MM1.S cells. The series is described as follows: Bortezomib-induced sensitization of MM1.S cells to KHYG-1 cells expressing TRAIL variant. The series is classed as cell-based. To be noted: MM1.S pretreated with 2.5 nM for 24 hours, 1:1 ratio, 12 hours co-culture.
Description: (2) 6 hours after electroporation of TRAIL variant mRNA, KHYG-1 cells were then cultured with MM cells in 12-well plate. After washing, cell concentrations were adjusted to 1×10^6/mL, before mixing KHYG-1 and MM1.S cells at 1:1 ratio to culture for 12 hours. (3) Flow cytometric analysis of the cytotoxicity of KHYG-1 cells was carried out. The co-cultured cells were collected, washed and then stained with CD2-APC antibody (5 uL/test), AnnexinV-FITC (5 uL/test) and SYTOX-Green (5 uL/test) using AnnexinV binding buffer. (4) Data were further analyzed using FlowJo 7.6.2 software. CD2-negative population represents MM.1S cells. KHYG-1 cells are strongly positive for CD2. Finally, the AnnexinV-FITC and SYTOX-Green positive cells in the CD2-negative population were analyzed.
Series [2] concerns DR5. The conditions noted are these: 24 hours. The procedure: Bortezomib was bought from Millennium Pharmaceuticals. Mouse anti-human DR5-AF647 (catalog number: 565498) was bought from BD Pharmingen. The stained cell samples were analyzed on BD FACS Canto II.
The subject of another series is KHYG-1 cells. Description: KHYG-1 cell viability after CMA treatment. The conditions noted are these: 100 nM CMA or vehicle. The series is classed as cell-based.
A further series relates to perforin. The series is described as follows: CMA-induced reduction of perforin expression in KHYG-1 cells. To be noted: 100 nM for 2 hours. The series is classed as cell-based, human. The procedure:
Mouse anti-human perforin-AF647 (catalog number: 563576) was bought from BD Pharmingen. Concanamycin A (catalog number: SC-202111) was bought from Santa Cruz Biotechnology. The stained cell samples were analyzed using a BD FACS Canto II. […] (2) KHYG-1 cells (6 hours after electroporation, cultured in penicillin/streptomycin free RPMI1640 medium) were further treated with 100 nM CMA or equal volume of vehicle (DMSO) for 2 hours. (3) The cells were collected (1×10^6 cells/test) by centrifugation (1500 rpm×5 minutes) and the supernatant was aspirated. (4) The cells were fixed in 4% paraformaldehyde in PBS solution at room temperature for 15 minutes. (5) The cells were washed with 4 mL of FACS Buffer (PBS, 0.5-1% BSA, 0.1% sodium azide) twice. (6) The cells were permeabilized with 1 mL of PBS/0.1% saponin buffer for 30 minutes at room temperature. (7) The cells were washed with 4 mL of PBS/0.1% saponin buffer. (8) The cells were re-suspended in 100 uL of PBS/0.1% saponin buffer, before adding 5 uL of the antibody to each tube and incubating for 30 minutes on ice. (9) The cells were washed with PBS/0.1% saponin buffer 3 times by centrifugation at 1500 rpm for 5 minutes. (10) The cells were re-suspended in 500 uL of ice cold FACS Buffer and kept in the dark on ice or at 4° C. in a fridge briefly until analysis. (11) The cells were analyzed on the flow cytometer (BD FACS Canto II). […]

Series [3] has as its system MM1.S cells. Description: Cytotoxicity of KHYG-1 cells with/without TRAIL variant in the presence of CMA. The series is classed as cell-based. The conditions noted are these: 100 mM CMA for 2 hours, 1:1 ratio, 12 hours. The procedure:
KHYG-1 cells were transfected with the TRAIL variant (TRAIL D269H/E195R), as described above in Example 6. (1) MM1.S cells were used as target cells. (2) 6 hours after electroporation of TRAIL mRNA, KHYG-1 cells were treated with […] CMA or an equal volume of vehicle for 2 hours. […] (5) The KHYG-1 and MM1.S cells were mixed at 1:1 ratio and co-cultured for 12 hours. (6) Flow cytometric analysis of the cytotoxicity of KHYG-1 cells was carried out. The co-cultured cells were washed and stained with CD2-APC antibody (5 uL/test). (7) After washing, further staining was performed with AnnexinV-FITC (5 uL/test) and SYTOX-Green (5 uL/test) using AnnexinV binding buffer. (8) Data were further analyzed using FlowJo 7.6.2 software. CD2-negative population represents MM1.S cells. KHYG-1 cells are strongly positive for CD2. The AnnexinV-FITC and SYTOX-Green positive cells in CD2-negative population were then analyzed.

The target in the next series is T1, decoy receptor DcR1 (Homo sapiens, UniProt O14798).
T1 sequence (O14798 26-236): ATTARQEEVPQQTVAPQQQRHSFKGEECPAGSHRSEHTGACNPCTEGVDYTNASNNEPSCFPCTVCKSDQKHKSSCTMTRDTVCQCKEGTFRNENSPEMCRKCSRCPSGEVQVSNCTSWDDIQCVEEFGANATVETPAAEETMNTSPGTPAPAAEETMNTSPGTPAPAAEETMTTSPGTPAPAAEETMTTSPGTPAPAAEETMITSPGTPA
To be noted: surface plasmon resonance; cited from earlier work. On the technique in general: In SPR one partner is held on a chip, and binding of the other changes the refractive index at the surface.

In the next series the target is DR4 (Homo sapiens, UniProt O00220). To be noted: surface plasmon resonance; cited from earlier work.
The next series concerns CTLA4 gene. Description: gRNA cleavage activity, T7E1 mismatch detection assay in K562 cells. The series is classed as cell-based, human. To be noted: CRISPR/Cas9, agarose gel after T7E1. The source says:
(§1) Two gRNA candidates were selected for each target gene and their cleavage efficacies in K562 cells determined. The sequences of the gRNA candidates are shown in Table 1 and the Protospacer Adjacent Motif (PAM) relates to the last 3 bases of the sequence. The flanking regions of the gRNA sequences on the LIR2 gene (SEQ ID NO: 1; amino acid translation SEQ ID NO: 2) and the CTLA4 gene (SEQ ID NO: 7; amino acid translation SEQ ID NO: 8) are shown in FIGS. 1 and 2, respectively.
(§2) K562 cells were transfected with the prepared gRNA constructs (FIG. 3) and subsequently harvested for PCR amplification. The presence of GFP expression was used to report successful incorporation of the gRNA construct into the K562 cells. This confirmed expression of the Cas9 gene and therefore the ability to knock out expression of the LIR2 and CTLA4 genes.
(§3) The cleavage activity of the gRNA constructs was determined using an in vitro mismatch detection assay. T7E1 endonuclease I recognizes and cleaves non-perfectly matched DNA, allowing the parental LIR2 and CTLA4 genes to be compared to the mutated genes following CRISPR/Cas9 transfection and non-homologous end joining (NHEJ).

A further series deals with LIR2 gene. The description is as above. The series is classed as cell-based, human. To be noted: CRISPR/Cas9, agarose gel after T7E1.
Description: as §1, §2, §3
The three bands corresponding to each mutation relate to the parental gene and the two resulting strands following detection of a mismatch in the DNA sequence after transfection.

Series [4] deals with DR5 (Homo sapiens, UniProt O14763). The conditions noted are these: D269H/E195R mutation vs wildtype TRAIL; cited from earlier work.
The target in the next series is T2, DcR2 (Homo sapiens, UniProt Q9UBN6).
T2 sequence (Q9UBN6 56-386): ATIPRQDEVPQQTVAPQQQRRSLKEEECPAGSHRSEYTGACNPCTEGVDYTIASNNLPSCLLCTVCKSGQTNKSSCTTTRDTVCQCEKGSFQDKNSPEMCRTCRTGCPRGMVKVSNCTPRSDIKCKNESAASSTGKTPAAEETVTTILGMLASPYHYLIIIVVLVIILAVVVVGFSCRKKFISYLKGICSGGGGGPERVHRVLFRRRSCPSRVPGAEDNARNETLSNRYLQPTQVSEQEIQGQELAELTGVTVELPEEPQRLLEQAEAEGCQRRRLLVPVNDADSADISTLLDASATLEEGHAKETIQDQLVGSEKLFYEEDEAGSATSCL
The conditions noted are these: D269H/E195R mutation vs wildtype TRAIL; cited from earlier work.

In the next series the target is T3, DcR1 (Homo sapiens, UniProt O14798).
T3 sequence (O14798 26-236): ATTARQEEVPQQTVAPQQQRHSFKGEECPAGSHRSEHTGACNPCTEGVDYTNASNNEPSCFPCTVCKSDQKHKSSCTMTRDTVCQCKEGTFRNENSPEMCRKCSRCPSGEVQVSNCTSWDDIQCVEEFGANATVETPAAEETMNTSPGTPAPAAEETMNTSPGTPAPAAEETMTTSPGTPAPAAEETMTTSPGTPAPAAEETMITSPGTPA
The conditions noted are these: D269H/E195R mutation vs wildtype TRAIL; cited from earlier work.

`CC(C)C[C@H](NC(=O)[C@H](Cc1ccccc1)NC(=O)c1cnccn1)B(O)O` [Bortezomib]: in the series with MM1.S cells [1], the “sensitivity of MM cells to KHYG-1 cells expressing the TRAIL variant” value is “induced sensitivity”. Also, the DR5 expression result is “increase” with DR5 [2] (MM1.S cells, low dose); “could not be upregulated” with DR5 [2] (MM cells, high doses); “increase” with DR5 [2] (RPMI8226 cells, low dose).
On to `C/C=C/[C@H]1O[C@@](O)([C@@H](C)[C@H](O)[C@H](C)[C@H]2OC(=O)/C(OC)=C/C(C)=C/[C@@H](C)[C@@H](O)[C@@H](CC)[C@@H](O)[C@H](C)C/C(C)=C/C=C/[C@@H]2OC)C[C@@H](O[C@H]2C[C@@H](O)[C@H](OC(N)=O)[C@@H](C)O2)[C@@H]1C` [CMA, Concanamycin A], for which, in the series on KHYG-1 cells, the “viability of KHYG-1 cells” value was “no negative effects”. Moreover, the perforin expression level entry in the series on perforin is “significantly decreased”. For the same molecule, the “effect of CMA on cytotoxic activity of NK cells expressing TRAIL variant” value with MM1.S cells [3] was “unable to significantly diminish”.
For orientation: Kd means the free concentration of one partner at which half of the binding sites on the other are occupied at equilibrium, for simple one-to-one binding. As for “Wildtype TRAIL: wildtype TRAIL ligand (CD253)”, the Kd is over 0.02 µM with decoy receptor DcR1 and over 0.002 µM with DR4.
Consider “g7 gRNA: gRNA candidate targeting hCTLA4, CACTCACCTTTGCAGAAGACAGG (SEQ ID NO: 9) (expressed or natural sequence; listed as Homo sapiens)”, for which, in the series with CTLA4 gene, the “gRNA cleavage efficiency at CTLA4 (T7E1)” value is 32%.
With “g9 gRNA: gRNA candidate targeting hLIR2, GAGTCACAGGTGGCATTTGGCGG (SEQ ID NO: 3) (expressed or natural sequence; listed as Homo sapiens)”, the “gRNA cleavage efficiency (LIR2 knockout)” value in the series on LIR2 gene worked out at 11%.
Take “g15 gRNA: gRNA candidate targeting hCTLA4, CCTTGTGCCGCTGAAATCCAAGG (SEQ ID NO: 10) (expressed or natural sequence; listed as Homo sapiens)”: the “gRNA cleavage efficiency at CTLA4 (T7E1)” value with CTLA4 gene amounted to 26%.
Turning to “g18 gRNA: gRNA candidate targeting hLIR2, CGAATCGCAGGTGGTCGCACAGG (SEQ ID NO: 4) (expressed or natural sequence; listed as Homo sapiens)”, in the series with LIR2 gene, the “gRNA cleavage efficiency (LIR2 knockout)” value is given as 10%.

B1: TRAIL variant: described in WO 2009/077857; encoded by the wildtype TRAIL gene containing the D269H/E195R mutation (protein)
chain: MAMMEVQGGPSLGQTCVLIVIFTVLLQSLCVAVTYVYFTNELKQMQDKYSKSGIACFLKEDDSYWDPNDEESMNSPCWQVKWQLRQLVRKMILRTSEETISTVQEKQQNISPLVRERGPQRVAAHITGTRGRSNTLSSPNSKNEKALGRKINSWESSRSGHSFLSNLHLRNGELVIHEKGFYYIYSQTYFRFQERIKENTKNDKQMVQYIYKYTSYPDPILLMKSARNSCWSKDAEYGLYSIYQGGIFELKENDRIFVSVTNEHLIDMHHEASFFGAFLVG
As for B1, the “affinity for DR5” value with DR5 [4] is “significantly increases the affinity”. In the series with DcR2, the “affinity for decoy receptor DcR2” value is “reducing the affinity”. The “affinity for decoy receptor DcR1” value with DcR1 was “reducing the affinity”.

The record behind these values is US20180344768A1, “NK CELL-BASED THERAPY” (Onkimmune Limited, priority 2016, published 2018).
